From US10258642B2, “Dextran sulfate for use in mobilization of cells” (TX MEDIC AB, priority 2013, dated 2019)
Values joined by “and” are separate entries in the source; they are usually repeats but may differ in a detail not shown here. Equal values may be shown once. Marks after values point to notes of the source that are not given here.

Experiments:
[1] = system: hematopoietic colony-forming cells (CFC); test: i.v. dose finding study, colony-forming cell assay; assay type: in vivo, mice
Method: Blood (100-200 μL) was transferred to polypropylene tubes containing heparin (final concentration 17.5 IE/mL). Erythrocytes were depleted using ammonium chloride solution (StemCell Technologies, Vancouver, BC, Canada). Remaining cells were resuspended in Iscove's modified Dulbecco's Medium with 2% fetal bovine serum (StemCell Technologies) and mixed with 2 mL of methylcellulose media supplemented with a cocktail of recombinant cytokines (MethoCult 3434; StemCell Technologies) and penicillin-streptomycin according to manufacturer's instructions. Cultures of 1.1 mL containing HPCs were plated onto 35 mm dishes (Sarstedt, Landskrona, Sweden) and placed in a humidified chamber with 5% CO2 at 37° C. Total number of colonies was counted on day 12 of culture.

peripheral blood cells [2] = test: effect of administration route, hematological analysis; assay type: in vivo, mice; details: 30 minutes after administration
Method: (§1) Peripheral blood was sampled by terminal heart puncture under isoflurane-anesthesia using EDTA-flushed syringes and transferred to polypropylene tubes containing 1.6 mg EDTA (Sarstedt, Landskrona, Sweden).
Mobilization was performed on DBA/2N mice (9-10 months, Charles River) using 100 mg/kg dextran sulfate (Meito, i.v. and s.c.).
The effect on peripheral blood cells after administration of 100 mg/kg dextran sulfate i.v. and s.c. was compared (n=5). Cells were harvested 30 minutes after administration for both administration routes.

peripheral blood cells [3] = details: single dose; AMD3100 s.c., dextran sulfate i.v.
HGF [4] = test: time-effect relationship, HGF-ELISA; assay type: in vivo, mice; details: for HGF highest level: 15 minutes after administration, mice; for HGF: i.v., plasma, HGF measured in another experiment
Method: Plasma was prepared by centrifuging EDTA blood for 5 minutes at 3000 g, and frozen at […] until analysis.

[5] = system: hematopoietic colony-forming cells (CFC); test: time-effect relationship, colony-forming cell assay; assay type: in vivo; details: mice
Excerpt: Peripheral blood was sampled by terminal heart puncture under isoflurane-anesthesia using EDTA-flushed (0.2 M EDTA prepared from a stock solution of 0.5 M EDTA (prepared by Rudbeck laboratory) diluted 1:2.5 in 0.9% NaCl) syringes.

peripheral blood cells [6] = test: combination with G-CSF, hematological analysis; assay type: in vivo, mice; details: single administration, mice
Method: G-CSF (NEUPOGEN®, Amgen, Holland) was supplied as sterile isotonic aqueous solution at 0.3 mg/mL and was diluted in normal saline to a concentration of 50 μg/mL. G-CSF was administered at a dose of 2.5 μg as a single subcutaneous injection, morning and evening Day -2 and Day -1. Dextran sulfate of different average molecular weights were used:
Standard treatment of patients prior to apheresis is based on daily injections of G-CSF for up to one week. Clinically dextran sulfate could be used in combination with G-CSF. In a study in mice 2.5 μg/animal of G-CSF was administered twice daily (8 hrs apart) for 2 days (Broxmeyer 1999).

lymphocytes = test: cell (lymphocyte) mobilization in humans after 10 min i.v. infusion; assay type: in vivo
Method: FIG. 13 illustrates mobilization of lymphocytes in peripheral blood in humans receiving a 10 min i.v. infusion of 15 mg/kg LMW-DS (top panel), 18 mg/kg LMW-DS (middle panel) or 24 mg/kg LMW-DS (lower panel) at time 0. The black line represents average lymphocyte levels and gray lines represent lymphocyte levels in individual humans.
Thus, the peak in cell mobilization starts about 1 hour after dextran sulfate administration, which is shown in […] exemplified by mobilization of lymphocytes following administration of different doses of dextran sulfate to human subjects at time 0 hours. Thus, the peak effect in cell mobilization in humans typically occurs within the first three hours following dextran sulfate administration.

peripheral blood cells [7] = test: s.c. dose finding study, hematological analysis of peripheral blood; details: for Basophils / Eosinophils / Erythrocytes / Hematocrit / Hemoglobin / LUC / Leukocytes (WBC) / Lymphocytes / MCHC / MCV / MPV / Monocytes / Neutrophils / Platelets / Reticulocytes: 3 hours, mean ± SEM
HGF [8] = test: s.c. dose finding study, HGF-ELISA; details: 50, 150 and 500 mg/kg s.c.
peripheral blood cells [9] = test: time-effect relationship, hematological analysis; details: 100 mg/kg i.v.; for Lymph / PLT / WBC: mean±SEM
Method: as §1

SDF-1 = details: single injection, monkeys (Sweeney 2002); cited from earlier work

## dextran sulfate [LMW-DS]
[1]; lowest dose given, 25 mg/kg i.v., p<0.001
  mobilization effect on CFC: significant evident already at the lowest dose given
[1]; single dose, AMD3100 s.c., dextran sulfate i.v.
  increase of CFC over control: 6-12 times
[1]; single i.v. injection
  BFU-E compared with AMD3100: seemed to increase BFU-E to a greater extent than AMD3100
Peripheral blood cells [2]; 100 mg/kg (Meito) i.v.
  Lymphocytes: 12.6 ± 1.7 *10^9/L
  WBC: 16.2 ± 1.8 *10^9/L
Peripheral blood cells [2]; 100 mg/kg (Meito) s.c.
  Lymphocytes: 9.9 ± 1.2 *10^9/L
Peripheral blood cells [2]; 100 mg/kg
  circulating WBC, lymphocytes, CFC or CFC subtypes, i.v. versus s.c.: no significant differences
Peripheral blood cells [3]
  general increase of WBC over control: 4-5 times
HGF [4]; listed as Dextran sulfate
  HGF highest level: 16000 pg/mL
HGF [4]; listed as dextran sulfate
  HGF highest level: 15960 pg/mL and 16000 pg/mL
HGF [4]; after 15 minutes
  increase of HGF compared to baseline levels: > 100 fold
HGF [4]; dextran sulfate 15 minutes versus AMD3100 after 1 hour
  HGF increase relative to plerixafor (AMD3100): 25 fold
HGF [4]; 15 min
  HGF: 15,960 ± 1,450 pg/mL
HGF [4]; 30 min
  HGF: 13,800 ± 1,100 pg/mL
HGF [4]; 1 hr
  HGF: 7,740 ± 510 pg/mL
HGF [4]; 3 hr
  HGF: 710 ± 230 pg/mL
[5]; 100 mg/kg i.v.
  time at which the number of CFCs peaks (peak starts): 7.5 min
  time of BFU-E peak: 7.5 min
  time of CFU-GM/CFU-GEMM peak: 15 to 30 min
[5]
  persistence of the CFC peak: at least 1 hour
  time of peak in mobilized cells (CFCs) after dextran sulfate administration: 7.5 to 30 min
Peripheral blood cells [6]
  release of lymphocytes in single therapy compared to single administration of G-CSF or plerixafor: increased lymphocytes
Peripheral blood cells [6]; listed as dextran sulfate
  release of lymphocytes in single therapy compared to single administration of G-CSF or plerixafor: at least doubles
lymphocytes; humans
  time of peak in mobilized cells after dextran sulfate administration: 30 to 120 min
lymphocytes; preliminary human data
  time at which cell mobilization is back to normal levels: about 24 hours
  time at which cell mobilization starts to decline: about 6 hours
lymphocytes; preliminary human data, lymphocytes
  time of peak of cell mobilization after administration: about 1 hour
Peripheral blood cells [7]; 10-500 mg/kg s.c., 3 hours after administration
  circulating white blood cells (WBC), mainly lymphocytes, and HGF: dose-dependent increase
Peripheral blood cells [7]; LMW-DS (pKC) 10 mg/kg s.c.
  Basophils: 0.02 ± 0.0 10^9 cells/L
  Eosinophils: 0.2 ± 0.0† 10^9 cells/L
  Erythrocytes: 9.0 ± 0.0††† 10^12 cells/L
  Hematocrit: 0.4 ± 0.0
  Hemoglobin: 122.0 ± 1.7
  LUC: 0.1 ± 0.0* 10^9 cells/L
  Leukocytes (WBC): 9.0 ± 1.2* 10^9 cells/L
  Lymphocytes: 6.1 ± 0.5** 10^9 cells/L
  MCHC: 323.7 ± 3.8 g/L
  MCV: 41.9 ± 0.1 fL
  MPV: 7.7 ± 0.2
  Monocytes: 0.6 ± 0.011 10^9 cells/L
  Neutrophils: 1.9 ± 0.4 10^9 cells/L
  Platelets: 1083.3 ± 116.3† 10^9 cells/L
  Reticulocytes: 222.7 ± 6.3 10^9 cells/L
Peripheral blood cells [7]; LMW-DS (pKC) 50 mg/kg s.c.
  Basophils: 0.03 ± 0.0 10^9 cells/L
  Eosinophils: 0.2 ± 0.0 10^9 cells/L
  Erythrocytes: 9.2 ± 0.4† 10^12 cells/L
  Hematocrit: 0.4 ± 0.0
  Hemoglobin: 127.8 ± 5.0
  LUC: 0.1 ± 0.0* 10^9 cells/L
  Leukocytes (WBC): 9.4 ± 0.7 10^9 cells/L
  Lymphocytes: 7.3 ± 0.6**/f 10^9 cells/L
  MCHC: 324.3 ± 1.41 g/L
  MCV: 42.6 ± 0.3 fL
  MPV: 7.9 ± 0.1
  Monocytes: 0.3 ± 0.1 10^9 cells/L
  Neutrophils: 1.5 ± 0.2 10^9 cells/L
  Platelets: 902.0 ± 96.4 10^9 cells/L
  Reticulocytes: 230.1 ± 64.6 10^9 cells/L
Peripheral blood cells [7]; LMW-DS (pKC) 150 mg/kg s.c.
  Basophils: 0.1 ± 0.0** 10^9 cells/L
  Eosinophils: 0.3 ± 0.1* 10^9 cells/L
  Erythrocytes: 8.3 ± 0.6 10^12 cells/L
  Hematocrit: 0.3 ± 0.0
  Hemoglobin: 113.3 ± 8.2
  LUC: 0.1 ± 0.0***/†† 10^9 cells/L
  Leukocytes (WBC): 15.7 ± 0.4***/††† 10^9 cells/L
  MCHC: 329.3 ± 4.9 g/L
  MCV: 41.7 ± 0.4 fL
  MPV: 7.2 ± 0.5
  Monocytes: 0.4 ± 0.0*/†† 10^9 cells/L
  Neutrophils: 2.4 ± 0.3** 10^9 cells/L
  Platelets: 893.5 ± 60.8† 10^9 cells/L
  Reticulocytes: 243.7 ± 23.7 10^9 cells/L
Peripheral blood cells [7]; LMW-DS (pKC) 500 mg/kg s.c.
  Basophils: 0.1 ± 0.0* 10^9 cells/L
  Eosinophils: 0.4 ± 0.1* 10^9 cells/L
  Erythrocytes: 9.4 ± 0.2††† 10^12 cells/L
  Hematocrit: 0.4 ± 0.0
  Hemoglobin: 130.3 ± 3.1
  LUC: 0.3 ± 0.2 10^9 cells/L
  Leukocytes (WBC): 21.8 ± 2.5***/†† 10^9 cells/L
  MCHC: 327.3 ± 2.5 g/L
  MCV: 42.4 ± 0.3 fL
  MPV: 7.9 ± 0.1
  Monocytes: 0.5 ± 0.1*/† 10^9 cells/L
  Neutrophils: 2.7 ± 0.3**/† 10^9 cells/L
  Platelets: 893.5 ± 61.0†† 10^9 cells/L
  Reticulocytes: 224.5 ± 35.2 10^9 cells/L
HGF [8]
  levels of circulating HGF: significantly (p<0.001) increased levels
Peripheral blood cells [9]
  number of platelets (PLT): did not affect
Peripheral blood cells [9]; 7.5 min
  Lymph: 4.6 ± 0.5*** *10^9/L
  PLT: 1,034 ± 31 *10^9/L
  WBC: 5.6 ± 0.5* *10^9/L
Peripheral blood cells [9]; 15 min
  Lymph: 8.9 ± 0.7*** *10^9/L
  PLT: 1,122 ± 58 *10^9/L
  WBC: 10.2 ± 0.7*** *10^9/L
Peripheral blood cells [9]; 30 min
  Lymph: 12.3 ± 1.1*** *10^9/L
  PLT: 978 ± 64 *10^9/L
  WBC: 14.6 ± 1.3*** *10^9/L
Peripheral blood cells [9]; 1 hr
  Lymph: 8.8 ± 0.5*** *10^9/L
  PLT: 965 ± 23 *10^9/L
  WBC: 11.2 ± 0.6*** *10^9/L
Peripheral blood cells [9]; 3 hr
  Lymph: 5.2 ± 0.8** *10^9/L
  PLT: 936 ± 26 *10^9/L
  WBC: 6.8 ± 1.0* *10^9/L
Peripheral blood cells [9]; mice
  time of highest numbers of WBC and lymphocytes: around 30 minutes
SDF-1
  time of maximum levels of peripheral SDF-1: 6 h
  time of return of peripheral SDF-1 to baseline: 24 h
